According to patent publication US11672753B2, “Composition for sebum control and pore minimizing” (AMOREPACIFIC CORPORATION, priority 2017, dated 2023):

Experiments:
[1] = tested on: HaCaT keratinocytes and human sebaceous gland cells; test: Evaluation of sebum production inhibitory activity (Oil Red O staining of triglycerides); assay type: cell-based; details: retinol 0.3 ppm (comparison); one day
Text: In order to efficiently evaluate the sebum production inhibitory activity of the plant extracts of the present disclosure, sebaceous gland cells and keratinocytes were used together, and an environment in vitro model similar to that of human sebaceous glands of the hair was used. HaCaT (ATCC, Va., USA), keratinocytes (Cellprogen, Calif., USA) cells and human sebaceous gland cells were inoculated into a 24-well culture plate at 3.75×10^4 cells and 6.0×10^4 cells, respectively. After inoculation, it was allowed to stand for one day so that the cells adhered to the bottom of the culture plate. At this time, 10% of fetal bovine serum (JRH Bioscience, Tokyo, Japan), […] of streptomycin (the above two reagents, GIBCO, Milan, Italy) were added to DMEM medium (Invitrogen, Carlsbad, Calif.) and used as a medium. After one day, the cells were treated with 50 μM of linoleic acid, 50 μM of arachidonic acid, or 10 nM of dihydrotestosterone, as a stimulating source for causing seborrheic skin inflammation. […] After one day, the amount of triglycerides produced in the cells was measured using Oil Red O staining. […] Then, the […], and the absorbance was measured at 520 nm using a spectrophotometer for quantification. […]

[2] = tested on: procollagen-I in human fibroblasts; test: Evaluation of procollagen-I production activity (ELISA of culture solution); assay type: cell-based; details: TGF-β1 0.005 ppm (comparison); two days after treatment
Text: An enzyme-linked immunosorbent assay (ELISA) method was used to confirm the amount of procollagen-I produced by the plant extracts of the present disclosure (Youngren et al., 1999). Since procollagen-I is a substance secreted out of cells, the culture solution of the fibroblasts treated with the samples was collected and applied to the experiment as a measurement method for confirming the expression change using the cell culture solution.
Specifically, human fibroblasts (Cell biologics, IL, USA) were inoculated into a 24-well culture plate at 2.5×10^4 cells. After inoculation, it was allowed to stand for one day so that the cells adhered to the bottom of the culture plate. At this time, 2% of low serum growth supplement (LSGS; Thermo Fisher, Mass., USA), […] of streptomycin (the above two reagents, GIBCO, Milan, Italy) were added to 106 medium (Thermo Fisher, Mass., USA) and used as a medium. Each plant extract obtained in Reference Examples 1 to 7 in the experimental group was dissolved in DMSO to make a 1% solution, and then diluted in DMEM medium, and treated to a final concentration of 50 ppm. In addition, for comparison, TGF-β1, known to have the ability to produce procollagen-I, was treated at a concentration of 0.005 ppm instead of the plant extracts. Two days after the treatment with the samples, the production of procollagen-I was measured. […]

For `CC1=C(/C=C/C(C)=C/C=C/C(C)=C/CO)C(C)(C)CCC1` [Retinol], the “Inhibition rate of sebum production (%)” value [1] was 42.1%.

For “TGF-β1: known to have the ability to produce procollagen-I; comparison”, the “Production rate of Procollagen-I (%)” value [2] was 52.1%.
